Our source for the Km values is publication PMC6337169, “Catechol 1,2-Dioxygenase is an Analogue of Homogentisate 1,2-Dioxygenase in Pseudomonas chlororaphis Strain UFB2” (International Journal of Molecular Sciences, 2018).

Molecules are shown by their SMILES.

The test system of the test is T1, catechol 1,2-dioxygenase (C12O) from PcUFB2; identified by ES-MS as homogentisate 1,2-dioxygenase (H12D).
T1 construct: gene hmgA; native purification from UFB2 cells grown on phenol (ANX anion exchange, Sephacryl HR100); 35 kDa on SDS-PAGE
In words: UV spectrophotometry, cis,cis-muconic acid at […] nm; Lineweaver-Burk / Michaelis-Menten fit. It is filed as biochemical, Pseudomonas chlororaphis. The note with it: 50 mM sodium phosphate pH 8, 30 °C, 30 min, 0-500 µM catechol.

Usually Km stands for the substrate concentration at which the rate is half of its maximum. As for `Oc1ccccc1O` [catechol], the Km stood at 35.8 µM.
